In brackets after ≈: the same amount, converted by molar mass.
Experiments:
Assay in all cases: MIC assay
E. faec. DSM-17050 (VRE) = format: cell-based, Enterococcus faecium; details: Enterococcus; read-out: MIC E. faec. DSM-17050 (VRE)
Procedure: (§1) All cystobactamids were evaluated in MIC-assays on a panel of representative ESKAPE strains with focus on A. baumannii (Tables 1 and 2). Compared to our previous work[10],[17],[18], we specifically included more challenging test strains with known resistances against gyrase inhibitors.
(§2) 2.1 Materials and Methods
(§3) Strains were cultivated according to standard procedures. Bacterial cryo-cultures were
(§4) resuspended into fresh MHBII (cation adjusted) medium. The resuspension
(§5) assay plate (Corning, #3788).
(§6) in parallel as a positive control. […]

A. baum. CIP-107292 = format: cell-based; details: Acinetobacter baumannii, CIP107292; read-out: MIC A. baum. CIP-107292
Procedure: as §1, §2, §3, §4, §5, §6

K. pneum. R-1525 = format: cell-based; details: Klebsiella pneumoniae; read-out: MIC K. pneum. R-1525
Procedure: as §1, §2, §3, §4, §5, §6

A. baum. DSM-30008 = format: cell-based; details: Acinetobacter baumannii, DSM30008; reference strain; read-out: MIC A. baum. DSM-30008
Procedure: as §1, §2, §3, §4, §5, §6

S. aur. ATCC-29213 = format: cell-based; details: Staphylococcus aureus, ATCC29213; reference strain; read-out: MIC S. aur. ATCC-29213
Procedure: as §1, §2, §3, §4, §5, §6

P. ae. PA14ΔmexAB = format: cell-based; details: Pseudomonas aeruginosa, read-out: MIC P. ae. PA14ΔmexAB
Procedure: as §1, §2, §3, §4, §5, §6

P. ae. PA14 = format: cell-based; details: Pseudomonas aeruginosa, PA14; reference strain; read-out: MIC P. ae. PA14
Procedure: as §1, §2, §3, §4, §5, §6

A. baum. R835 = format: cell-based; details: Acinetobacter baumannii; read-out: MIC A. baum. R835
Procedure: as §1, §2, §3, §4, §5, §6

K. pneum. CIP-104298 = format: cell-based; details: Klebsiella pneumoniae, CIP104298; reference strain; read-out: MIC K. pneum. CIP-104298
Procedure: as §1, §2, §3, §4, §5, §6

E. coli LM705 = format: cell-based; details: Escherichia coli, LM705, read-out: MIC E. coli LM705
Procedure: as §1, §2, §3, §4, §5, §6

E. coli ATCC-25922 = format: cell-based; details: Escherichia coli, ATCC25922; reference strain; read-out: MIC E. coli ATCC-25922
Procedure: as §1, §2, §3, §4, §5, §6

A. baum. CIP-105742 = format: cell-based; details: Acinetobacter baumannii, CIP105742; read-out: MIC A. baum. CIP-105742
Procedure: as §1, §2, §3, §4, §5, §6

A. baum. ATCC BAA-1710 = format: cell-based; details: Acinetobacter baumannii, ATCCBAA1710; read-out: MIC A. baum. ATCC BAA-1710
Procedure: as §1, §2, §3, §4, §5, §6

[1] = tested on: S. pneum. DSM-11865 (PRSP); format: cell-based; details: Streptococcus pneumoniae; read-out: MIC S. pneum. DSM-11865 (PRSP)
Procedure: as §1, §2, §3, §4, §5, §6

E. ae. CIP 106754 = format: cell-based, Enterobacter aerogenes; details: Klebsiella aerogenes, CIP106754, read-out: MIC E. ae. CIP 106754
Procedure: as §1, §2, §3, §4, §5, §6

E. cloacae ATCC BAA-2468 = format: cell-based; details: Enterobacter cloacae, ATCCBAA2468; read-out: MIC E. cloacae ATCC BAA-2468
Procedure: as §1, §2, §3, §4, §5, §6

K. pneum. KP10581 = format: cell-based; details: Klebsiella pneumoniae; read-out: MIC K. pneum. KP10581
Procedure: as §1, §2, §3, §4, §5, §6

Compound | MIC (E. faec. DSM-17050 (VRE)) [µg/mL] | MIC (A. baum. CIP-107292) [µg/mL] | MIC (K. pneum. R-1525) [µg/mL] | MIC (A. baum. DSM-30008) [µg/mL] | MIC (S. aur. ATCC-29213) [µg/mL] | MIC (P. ae. PA14ΔmexAB) [µg/mL] | MIC (P. ae. PA14) [µg/mL] | MIC (A. baum. R835) [µg/mL] | MIC (K. pneum. CIP-104298) [µg/mL] | MIC (E. coli LM705) [µg/mL] | MIC (E. coli ATCC-25922) [µg/mL] | MIC (A. baum. CIP-105742) [µg/mL] | MIC (A. baum. ATCC BAA-1710) [µg/mL] | MIC [1] [µg/mL] | MIC (E. ae. CIP 106754) [µg/mL] | MIC (E. cloacae ATCC BAA-2468) [µg/mL] | MIC (K. pneum. KP10581) [µg/mL]
O=C(O)c1cn(C2CC2)c2cc(N3CCNCC3)c(F)cc2c1=O [CIP, ciprofloxacin, reference compound] | 0.05 to 4 (≈ 0.151 to 12.1 µM) | 64 (≈ 193 µM) | > 64 | 0.05 to 0.25 (≈ 0.151 to 0.754 µM) | 0.2 to 1 (≈ 0.604 to 3.02 µM) | 0.006 to 0.1 (≈ 0.0181 to 0.302 µM) | 0.025 to 0.2 (≈ 0.0754 to 0.604 µM) | 32 (≈ 96.6 µM) | 0.025 to 0.05 (≈ 0.0754 to 0.151 µM) | > 6.4 | 0.01 to 0.03 (≈ 0.0302 to 0.0905 µM) | 0.03 to 0.25 (≈ 0.0905 to 0.754 µM) | 32 (≈ 96.6 µM) | > 6.4 | > 6.4 |  | 
CO[C@@H](C(N)=O)[C@H](NC(=O)c1ccc(NC(=O)c2ccc(C#N)cc2)cc1)C(=O)Nc1ccc(C(=O)Nc2ccc(C(=O)Nc3ccc(C(=O)O)cc3)c(O)c2OC(C)C)cc1 [CN861 1, reference compound] |  | > 64 | 16 (≈ 19 µM) | 1 (≈ 1.19 µM) | 0.125 (≈ 0.148 µM) | 1 (≈ 1.19 µM) | 16 (≈ 19 µM) | 64 (≈ 76 µM) | 16 (≈ 19 µM) | 0.64 (≈ 0.76 µM) | 0.25 (≈ 0.297 µM) | 0.25 (≈ 0.297 µM) | 8 (≈ 9.5 µM) |  | 4 (≈ 4.75 µM) | 32 (≈ 38 µM) | 2 (≈ 2.38 µM)
C#CCC(NC(=O)c1ccc(NC(=O)c2ccc(C#N)cc2)cc1)C(=O)Nc1ccc(C(=O)Nc2ccc(C(=O)Nc3ccc(C(=O)O)cc3)c(O)c2OC(C)C)cc1 (centres unmarked) [CN-CC-861 2, reference compound] | < 0.03 | 0.5 to 1 (≈ 0.631 to 1.26 µM) |  | 0.02 to 0.03 (≈ 0.0252 to 0.0378 µM) | 0.02 (≈ 0.0252 µM) | 0.03 to 0.5 (≈ 0.0378 to 0.631 µM) | 0.5 to 16 (≈ 0.631 to 20.2 µM) | 1 (≈ 1.26 µM) | 8 (≈ 10.1 µM) | 0.03 to 0.2 (≈ 0.0378 to 0.252 µM) |  | 0.02 (≈ 0.0252 µM) | 0.06 to 0.25 (≈ 0.0757 to 0.315 µM) |  | 0.125 to 4 (≈ 0.158 to 5.05 µM) |  | 0.06 to 0.25 (≈ 0.0757 to 0.315 µM)
C#CC[C@H](NC(=O)c1ccc(NC(=O)c2ccc(C#N)cc2)cc1)C(=O)Nc1ccc(C(=O)Nc2cc(O)c(C(=O)Nc3ccc(C(=O)O)cc3)cc2OC(C)C)cc1 [Cmpd. 3] | > 64 | > 64 | > 64 | 1 (≈ 1.26 µM) | > 64 | > 64 | > 64 | > 64 | > 64 | > 64 | 1 (≈ 1.26 µM) | 2 (≈ 2.52 µM) | > 64 | > 64 | > 64 | > 64 | > 64
C#CC[C@H](NC(=O)c1ccc(NC(=O)c2ccc(C#N)cc2)cc1)C(=O)Nc1ccc(C(=O)Nc2ccc(C(=O)Nc3ccc(C(=O)O)cc3)c(O)c2OC)cc1 [Cmpd. 10] |  | 4 (≈ 5.23 µM) | 32 (≈ 41.8 µM) |  | 0.5 (≈ 0.654 µM) |  |  | 4 (≈ 5.23 µM) |  | < 0.03 | < 0.03 |  | 0.25 (≈ 0.327 µM) | < 0.03 | 4 (≈ 5.23 µM) | 16 (≈ 20.9 µM) | 1 (≈ 1.31 µM)
C#CC[C@H](NC(=O)c1ccc(NC(=O)c2ccc(C#N)cc2)cc1)C(=O)Nc1ccc(CNc2ccc(C(=O)Nc3ccc(C(=O)O)cc3)c(O)c2OC(C)C)cc1 [Cmpd. 40] | 0.25 (≈ 0.321 µM) | > 8 | > 64 | 0.5 (≈ 0.642 µM) | 0.5 to 1 (≈ 0.642 to 1.28 µM) | 2 (≈ 2.57 µM) | > 64 | > 8 | > 64 | > 64 | 0.5 to 1 (≈ 0.642 to 1.28 µM) | 0.25 (≈ 0.321 µM) | 0.5 (≈ 0.642 µM) | > 64 | > 64 | > 64 | 1 (≈ 1.28 µM)
C#CC[C@H](NC(=O)c1ccc(NC(=O)c2ccc(C#N)cc2)cc1)C(=O)Nc1ccc(C(=O)Nc2ccc3c(=O)n(-c4ccc(C(=O)O)cc4)c(C)nc3c2OC(C)C)cc1 [Cmpd. 45a] | 2 to 4 (≈ 2.45 to 4.9 µM) | > 8 | > 64 | 8 (≈ 9.81 µM) | 4 (≈ 4.9 µM) | 16 to 32 (≈ 19.6 to 39.2 µM) | > 64 | > 8 | > 64 | > 64 | 2 to 4 (≈ 2.45 to 4.9 µM) | 4 (≈ 4.9 µM) | 0.5 to 1 (≈ 0.613 to 1.23 µM) | > 64 | > 64 | > 64 | 4 (≈ 4.9 µM)
C#CC[C@H](NC(=O)c1ccc(NC(=O)c2ccc(C#N)cc2)cc1)C(=O)Nc1ccc(C(=O)Nc2ccc3c(=O)n(-c4ccc(C(=O)O)cc4)cnc3c2OC(C)C)cc1 [Cmpd. 45b] | 1 (≈ 1.25 µM) | > 8 | > 64 | 1 to 2 (≈ 1.25 to 2.49 µM) | 8 (≈ 9.98 µM) | > 64 | > 64 | > 8 | > 64 | > 64 | 1 (≈ 1.25 µM) | 2 (≈ 2.49 µM) | > 8 | > 64 | > 64 | > 64 | 16 (≈ 20 µM)
CO[C@@H](C(N)=O)[C@H](NC(=O)c1ccc(NC(=O)c2ccc(C#N)cc2)cc1)C(=O)Nc1ccc(C(=O)Nc2ccc(C(=O)N(C)c3ccc(C(=O)O)cc3)c(O)c2OC(C)C)cc1 [Cmpd. 46] | > 64 | > 8 | > 64 | > 8 | > 64 | > 64 | > 64 | > 8 | > 64 | > 64 | < 0.03 | > 8 | > 8 | > 64 | > 64 | > 64 | > 64
C#CC[C@H](NC(=O)c1ccc(NC(=O)c2ccc(C#N)cc2)cc1)C(=O)Nc1ccc(C(=O)Nc2ccc(-c3ncc4cc(C(=O)O)ccc4n3)c(O)c2OC(C)C)cc1 [Cmpd. 47] |  | > 64 |  | > 64 | > 64 | > 64 | > 64 | > 64 | > 64 | > 64 |  | > 64 |  |  |  |  | > 64

From paper PMC11538350, “Synthetic studies on the tetrasubstituted D-ring of cystobactamids lead to potent terephthalic acid antibiotics” (Communications Chemistry, 2024)
